Test results as given in patent US20070142457A1, “Crystalline forms of docetaxel and processes for their preparation” (priority 2005, published 2007).

Assay: solubility compared with docetaxel trihydrate
Type: physicochemical
Settings: relative to docetaxel trihydrate; statement in words, no method or figures given

In the case of CC(=O)O[C@@]12CO[C@@H]1C[C@H](O)[C@@]1(C)C(=O)[C@H](O)C3=C(C)[C@@H](OC(=O)[C@H](O)[C@@H](NC(=O)OC(C)(C)C)c4ccccc4)C[C@@](O)([C@@H](OC(=O)c4ccccc4)[C@H]21)C3(C)C [docetaxel polymorph of the invention, docetaxel], the solubility is reported as “greater solubility than docetaxel trihydrate”.
